This passage reports Ki results from BindingDB's records for doi:10.1007/bf00168685 (Centre De Pharmacologie-Endocrinologie (Montpellier, France), 1992).

Molecules are shown by their SMILES.

This experiment deals with T1, 5-hydroxytryptamine receptor 3A (Rattus norvegicus, UniProt P35563).
T1 sequence (P35563 whole entry): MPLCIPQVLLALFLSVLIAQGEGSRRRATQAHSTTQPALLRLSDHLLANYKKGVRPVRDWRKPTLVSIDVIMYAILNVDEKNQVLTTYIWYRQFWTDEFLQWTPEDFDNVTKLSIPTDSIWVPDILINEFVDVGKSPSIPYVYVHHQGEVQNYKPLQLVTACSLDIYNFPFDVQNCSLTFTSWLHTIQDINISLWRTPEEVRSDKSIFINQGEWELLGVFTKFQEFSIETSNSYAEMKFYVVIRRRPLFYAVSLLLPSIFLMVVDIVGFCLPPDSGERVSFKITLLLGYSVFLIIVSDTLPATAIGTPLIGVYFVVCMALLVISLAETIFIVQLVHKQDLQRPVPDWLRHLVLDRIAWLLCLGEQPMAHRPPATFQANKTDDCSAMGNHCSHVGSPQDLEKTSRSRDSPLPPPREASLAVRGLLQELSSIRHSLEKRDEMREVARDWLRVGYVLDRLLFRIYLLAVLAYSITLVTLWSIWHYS

Compound `CN1C2CCC1CC(OC(=O)c1c[nH]c3ccccc13)C2` (stereo unspecified) showed a Ki of 2.8 nM.
